# Measurements published in patent US8021661B2, “Cripto binding molecules” (Biogen Idec MA Inc., priority 2005, dated 2011).
# Legend:
# Calu-6 xenograft tumors = assay: Established Calu-6 human lung xenografts; type: in vivo, athymic nude mice; settings: irinotecan 10 mg/kg on Day 13-14, 17-21, 24-26; Day 20 until Day 45
# Protocol: One hundred sixty (160) female athymic nude mice (Harlan Sprague Dawley, Madison, Wis.) were started on the study at eight to nine weeks of age. Animals were acclimated to the laboratory for at least five days prior to implantation of the tumor. Housing was in ventilated cage racks, and food and water were allowed ad libitum.
# Calu-6 cells were obtained from the American Tissue Type Collection (Manassas, Va.). The cell line was passed in vitro 11 times prior to implantation. Cells were grown in vitro in RPMI-1640+10% fetal bovine serum (FBS) media without antibiotics (5% CO2). Bacterial cultures were performed on aliquots of the tumor homogenate preparation that was implanted into the mice.
# On Day −1, the mice were implanted SC with BioMedics animal ID chips (Model IMI-1000; Seaford, Del.) subcutaneously on the left flank. An inoculum of 5×10^6 Calu-6 cells in 200 μL RPMI-1640 without serum was implanted SC into the right flank area on Day 0. Tumor size and body weight measurements were recorded at least twice weekly beginning on Day 4. When the tumors measured a minimum of 100 mg, the mice were randomized to treatment and control groups (see Table 13). […]
# Tumor measurements were determined using digital calipers. Body weights and tumor size measurements were recorded on Day 4 and were continued twice weekly until the termination of the study. […]
# BT-474 xenograft tumors = assay: Established BT-474 human breast tumor xenografts, full-length B3F6.1-DM4; type: in vivo, athymic nude mice; settings: Taxol 25 mg/kg IP q4d×3 starting Day 15
# From the text: One hundred forty (140) female athymic nude mice (Harlan Sprague Dawley, Madison, Wis.) were started on the study at ten weeks of age. Animals were acclimated to the laboratory for at least five days prior to implantation of the tumor. Housing was in ventilated cage racks, and food and water were allowed ad libitum.
# BT-474 tumors were obtained from cryopreserved solid tumor fragments from a serially passaged in vivo donor line established at Biogen Idec (cryo reg #0141, established originally from cells obtained from the […] (Manassas, Va.)). Tumor fragments were removed from cryopreservation and serially passaged SC in vivo for 3 generations in female athymic nude mice prior to implantation for this study. […]
# On Day −1, the mice were implanted with BioMedics animal ID chips (Model IMI-1000; Seaford, Del.) SC on the left flank. […] Tumor size and body weight measurements were recorded at least twice weekly beginning on Day 5. When the tumors measured a minimum of 100 mg (Day 15), mice were randomized to treatment and control groups (see Table 10) based on tumor size and excluding tumors with non-progressive growth. […]
# Tumor measurements were determined using digital calipers. Body weights and tumor size measurements were recorded on Day 0 and were continued twice weekly until the termination of the study. […]
# NCCIT xenograft tumors = assay: Established NCCIT human testicular carcinoma xenografts; type: in vivo, athymic nude mice; settings: cis-platinum 2 mg/kg/injection SC 3×/wk×6; Day 20 to Day 66
# Protocol: Treatments were initiated on Day 15 when the tumors reached a minimum change in size of 100 mg.
# One hundred fifty (150) male athymic nude mice (Harlan Sprague Dawley, Madison, Wis.) were started on the study at seven to eight weeks of age. Animals were acclimated to the laboratory for at least five days prior to implantation of the tumor. Housing was in ventilated cage racks, and food and water were allowed ad libitum.
# NCCIT cells were obtained from the American Tissue Type Collection (Manassas, Va.). The cell line was passed in vitro 4 times prior to implantation. Cells were grown in vitro in RPMI-1640+10% fetal bovine serum (FBS) media without antibiotics (5% CO2).
# An inoculum of 5×10^6 NCCIT cells in 200 L RPMI-1640 without serum (25%) plus Matrigel (75%) was implanted SC into the right flank area on Day 0. Tumor size and body weight measurements were recorded at least twice weekly beginning on Day 6. On Day 15, mice with tumors with a minimum increase in tumor weight of 100 mg and a maximum increase of 244 mg, excluding tumors with non-progressive growth, were randomized to treatment and control groups (see Table 12). […]
# Tumor measurements were determined using digital calipers. Body weights and tumor size measurements were recorded on Day 6 and were continued at least twice weekly until the termination of the study. […]
# [1] = Size exclusion chromatography of purified antibody; type: physicochemical; settings: purified using only the Protein G column
# Protocol: Antibody was produced and purified using methods described in Example 4 above. […] Reduced and non-reduced purified protein samples were analyzed by SDS-PAGE electrophoresis. Under non-reducing conditions, Form A is expected to migrate as a single 120 kDa homodimer and Form B as a 60 kDa doublet.
# Reduced and non-reduced purified protein samples were analyzed by SDS-PAGE electrophoresis. Under these conditions, Form A is expected to migrate as a single 120 kDa homodimer and Form B as a 60 kDa doublet.
molecule,measurement,setting,value
"CCc1c2c(nc3ccc(OC(=O)N4CCC(N5CCCCC5)CC4)cc13)-c1cc3c(c(=O)n1C2)COC(=O)[C@]3(O)CC [Irinotecan, irinotecan]",inhibition of tumor growth,Calu-6 xenograft tumors,significant (P<0.001) inhibition of tumor growth
"CC(=O)O[C@H]1C(=O)[C@@]2(C)[C@H]([C@H](OC(=O)c3ccccc3)[C@]3(O)C[C@H](OC(=O)[C@H](O)[C@@H](NC(=O)c4ccccc4)c4ccccc4)C(C)=C1C3(C)C)[C@]1(OC(C)=O)CO[C@@H]1C[C@@H]2O [Taxol, paclitaxel]",inhibition of tumor growth,BT-474 xenograft tumors,significant (P<0.05) inhibition of tumor growth from Day 26 to Day 50
"N.N.[Cl][Pt][Cl] [Cis-platinum, cisplatin]",inhibition of tumor growth,NCCIT xenograft tumors,significant inhibition (P<0.05) of tumor growth from Day 20 to Day 66
"chimeric dd-B3F6: CH2 domain-deleted chimeric B3F6 with connecting peptide SEQ ID NO: 5; heavy chain SEQ ID NO: 3, light chain SEQ ID NO: 4 (antibody) heavy: QVQLQQVGAELVKPGASVKLSCKASGYTFTSYWIHWVKQRPGQGLEWIGENDPSNGRTNYNEKFKNKATLTVDKSSSTAYMHLSSLTSEDSAVYYCSRGPNYFYSMDYWGQGTSVTVSSASTKGPSVFPLAPSSKSTSGGTAALGCLVKDYFPEPVTVSWNSGALTSGVHTFPAVLQSSGLYSLSSVVTVPSSSLGTQTYICNVNHKPSNTKVDKKVEPKSCDKTHTCPPCPEPKSCDTPPPCPRCPAPGGGSSGGGSGGQPREPQVYTLPPSRDELTKNQVSLTCLVKGFYPSDIAVEWESNGQPENNYKTTPPVLDSDGSFFLYSKLTVDKSRWQQGNVFSCSVMHEALHNHYTQKSLSLSPG light: DFLMTQTPLSLPVSLGDQASISCRSSQSIVHSNGNTYLEWYLQKPGQSPKLLIYKVSNRFSGVPDRFSGSGSGTDFTLKISRVEAEDLGVYYCFQGSHVPLTFGAGTKLELKRTVAAPSVFIFPPSDEQLKSGTASVVCLLNNFYPREAKVQWKVDNALQSGNSQESVTEQDSKDSTYSLSSTLTLSKADYEKHKVYACEVTHQGLSSPVTKSFNRGEC",monomer (size exclusion chromatography),[1],93-98%
